Laboratory results published in patent US20060069132A1, “Azolecarboxamide herbicides” (priority 2004, published 2006).

What was measured:
[1] = system: common (oilseed) sunflower; assay: Test C pre-/postemergence herbicide test; type: in vivo, Helianthus annuus; details: for Plant response rating, Sunflower: preemergence
Method in brief: (§1)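 Pre- and postemergence application, solvent/surfactant formulation; post at 1- to 4-leaf stage (2–18 cm). Greenhouse 12–14 d. Visual rating vs controls, 0 = no effect, 100 = complete control.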

johnsongrass = assay: Test C pre-/postemergence herbicide test; type: in vivo, Sorghum halepense; details: for Plant response rating, Johnsongrass: preemergence
Method in brief: as §1

morningglory = assay: Test A pre-/postemergence herbicide test; type: in vivo, Ipomoea spp.
Method in brief: (§2)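 Visual injury rating on a 0–100 scale (0 no effect, 100 complete control) versus untreated controls, about ten days after treatment in greenhouse. Pre: directed soil spray onto seeded sandy loam. Post: spray to runoff on plants 2–10 cm tall at one- to two-leaf stage.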

giant foxtail = assay: Test A pre-/postemergence herbicide test; type: in vivo, Setaria faberi
Method in brief: as §2

[2] = system: smallflower umbrella sedge; assay: Test C flooded paddy test; type: in vivo, Cyperus difformis; details: for Plant response rating, Sedge, Umbrella: 500 g ai/ha, visual rating after 12 to 14 days
lambsquarters [3] = assay: Test C pre-/postemergence herbicide test; type: in vivo, Chenopodium album; details: for Plant response rating, Lambsquarters: preemergence
Method in brief: as §1

large crabgrass = assay: Test A pre-/postemergence herbicide test; type: in vivo, Digitaria sanguinalis
Method in brief: as §2

lambsquarters [4] = assay: Test B pre-/postemergence herbicide test; type: in vivo, Chenopodium album; details: for Lambsquarters plant response rating (0 to 100 scale): 0 = no effect, 100 = complete control; for Lambsquarters plant response rating (0 to 100 scale) / Plant response rating, Lambsquarters: preemergence; for Plant response rating, Lambsquarters: visual rating 0-100, 0 no effect, 100 complete control; for Lambsquarters plant response rating: postemergence, visual rating, scale 0 (no effect) to 100 (complete control)
Method in brief: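 Seeds were planted and treated preemergence with compounds formulated in a non-phytotoxic solvent mixture containing surfactant, while plants at the 1- to 4-leaf stage (2 to 18 cm) received postemergence sprays. Flooded paddy plants were grown to the 2-leaf stage. After 13 to 15 days in a greenhouse, injury was visually rated 0–100 against untreated controls.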

[5] = 125 g ai/ha, scale 0 (no effect) to 100 (complete control), visual, 12 to 14 days
[6] = Preemergence, 500 g ai/ha, scale 0 to 100, 0 no effect, 100 complete control
[7] = Postemergence, 500 g ai/ha, 0 to 100 scale, 0 no effect, 100 complete control
[8] = Postemergence, 2000 g ai/ha, 0 to 100 scale, 0 no effect, 100 complete control
[9] = Preemergence, 2000 g ai/ha, visual rating, 0 to 100 scale (0 no effect, 100 complete control)
[10] = preemergence, 500 g ai/ha, visual injury, 0 to 100 scale (0 no effect, 100 complete control)
[11] = 62 g ai/ha, scale 0 to 100 (0 no effect, 100 complete control)
[12] = 125 g ai/ha, scale 0 to 100 (0 no effect, 100 complete control)
[13] = 250 g ai/ha, scale of 0 to 100, 0 is no effect, 100 is complete control
[14] = scale 0 to 100 (0 no effect, 100 complete control)
[15] = 500 g ai/ha, scale 0 to 100 (0 no effect, 100 complete control), visual, 12 to 14 days

Structure (SMILES) | Plant response rating, Sunflower ([1]; 62 g ai/ha, scale 0 to 100) | Plant response rating, Sunflower [1, 5] | Plant response rating, Sunflower ([1]; 250 g ai/ha, scale 0-100) | Plant response rating, Johnsongrass (johnsongrass; 62 g ai/ha, scale 0 to 100) | Plant response rating, Johnsongrass (johnsongrass; [5]) | Plant response rating, Johnsongrass (johnsongrass; 250 g ai/ha, scale 0-100) | Morningglory plant response rating (morningglory; [7]) | Plant response rating, Morningglory (morningglory; [8]) | Morningglory plant response rating (morningglory; [9]) | Morningglory plant response rating (morningglory; [10]) | Foxtail, Giant plant response rating (giant foxtail; [7]) | Plant response rating, Foxtail, Giant (giant foxtail; [8]) | Foxtail, Giant plant response rating (giant foxtail; [9]) | Foxtail, Giant plant response rating (giant foxtail; [10]) | Sedge, Umbrella plant response rating [2, 11] | Sedge, Umbrella plant response rating [2, 12] | Sedge, Umbrella plant response rating [2, 13] | Plant response rating, Sedge, Umbrella [2, 14] | Plant response rating, Lambsquarters (lambsquarters [3]; 62 g ai/ha, scale 0 to 100) | Plant response rating, Lambsquarters (lambsquarters [3]; [5]) | other results
C=CCNC(=O)c1cccc(NC(=O)c2sc(C(C)(C)C)nc2CC)c1 [Compound 207] | 0 | 0 | 0 | 0 | 10 | 40 | 20 | 15 | 85 | 35 | 10 | 50 | 90 | 75 | 70 | 75 | 75 | 90 | 90 | 95 | Sunflower plant response rating [1, 6]: 0; Johnsongrass plant response rating (johnsongrass; [6]): 50; Plant response rating, Lambsquarters (lambsquarters [3]; 250 g ai/ha, scale 0-100): 95; Lambsquarters plant response rating (lambsquarters [3]; [6]): 95; Crabgrass, Large plant response rating (large crabgrass; [7]): 20; Plant response rating, Crabgrass, Large (large crabgrass; [8]): 65; Crabgrass, Large plant response rating (large crabgrass; [9]): 90; Crabgrass, Large plant response rating (large crabgrass; [10]): 95; Lambsquarters plant response rating (0 to 100 scale) (lambsquarters [4]; 125 g ai/ha): 80; Plant response rating, Lambsquarters (lambsquarters [4]; 500 g ai/ha): 100; Lambsquarters plant response rating (lambsquarters [4]; 125 g ai/ha): 50; Lambsquarters plant response rating (lambsquarters [4]; 500 g ai/ha): 80
CCNC(=O)c1cccc(NC(=O)c2sc(C(C)(C)C)nc2CC)c1 [Compound 210] | 0 | 0 | 0 | 5 | 20 | 50 | 20 | 25 | 100 | 55 | 40 | 75 | 100 | 100 | 75 | 80 | 85 | 90 | 100 | 100 | Plant response rating, Sunflower [1, 15]: 0; Plant response rating, Johnsongrass (johnsongrass; [15]): 70; Plant response rating, Lambsquarters (lambsquarters [3]; 250 g ai/ha, scale 0-100): 100; Plant response rating, Lambsquarters (lambsquarters [3]; [15]): 100; Crabgrass, Large plant response rating (large crabgrass; [7]): 40; Plant response rating, Crabgrass, Large (large crabgrass; [8]): 65; Crabgrass, Large plant response rating (large crabgrass; [9]): 100; Crabgrass, Large plant response rating (large crabgrass; [10]): 90; Lambsquarters plant response rating (0 to 100 scale) (lambsquarters [4]; 125 g ai/ha): 100; Plant response rating, Lambsquarters (lambsquarters [4]; 500 g ai/ha): 100; Lambsquarters plant response rating (lambsquarters [4]; 125 g ai/ha): 70; Lambsquarters plant response rating (lambsquarters [4]; 500 g ai/ha): 80
